# “Also recorded” adds a separate entry of the source. Like-named read-outs stand apart in the source and are kept apart here.
# What was measured:
# rats = assay: Lung volume reduction in rats, fibrin gel, lungs and kidneys evaluated after 1 week; type: in vivo; details: 200 U/mL thrombin
# Experimental: (§1) Three rats were treated with 5 mg/mL poly(Lys, Glu) to evaluate whether the copolymer could be used to modulate local and/or systemic toxicity. Treatments contained 28.6 mg/mL fibrinogen polymerized with 200 U/mL thrombin. All rats were anesthetized and intubated orotracheally. A dual lumen catheter was placed into a target site in the lung with bronchoscopic guidance. The reagents were injected into the lung and the catheter was removed. Each animal was allowed to recover from anesthesia, and returned to its cage. After 1 week, all animals were euthanized. The extent of pleural scarring was assessed prior to lung removal from the chest cavity. The lungs were then removed en bloc, fully inflated, and evaluated visually to assess the extent of local parenchymal inflammation and scarring produced by treatment. The kidneys were also harvested and evaluated for the presence of cortical lesions and infarctions which can develop as a consequence of systemic toxicity following polycation adminstration.
# as §1, with “4” for “Three”, “2.5” for “5”, “polyomithine and 3 were treated with 2.5 mg/mL polyomithine precipitated with 2.5 mg/mL chondroitin sulfate” for “poly(Lys, Glu)”, “precipitation” for “the copolymer”, “administration.” for “adminstration.”
# sheep lungs = type: in vivo
# Experimental: Polylysine was delivered to 12 pulmonary subsegments via a bronchoscope in a fibrin gel matrix at 100 mg, 30 mg and 10 mg per subsegment (groups 1, 2 and 3 in FIG. 1). The molecular weight of the polylysine used was 20,000-80,000 Da with an average molecular weight of 55,000 Da. A total of 10 sheep were thus treated.
# The characteristic lesion caused by polylysine is renal infarction, consistent with what has been reported in the literature for polycationic injury. In the animals tested with baseline normal renal function, renal damage resulting from cationic injury remains subclinical. […] Thus, these clinical pathology tests were not sufficiently sensitive to detect polycationic renal injury resulting from polylysine. Polycationic renal toxicity following pulmonary treatment is initiated and can be detected only at necropsy within days of treatment. […] The characteristic acute lesion appeared to be renal infarction with associated hemorrhage. Lesions occurred within days (3-7 days) of cationic exposure. Necropsy findings are the most sensitive markers of toxicity.
# 4 sheep were treated at 12 pulmonary subsegments each with a fibrin gel containing 100 mg chondroitin sulfate (Group 5 in FIG. 1). 2 animals were sacrificed at 8 days and the remaining 2 animals were sacrificed at 4 weeks. […] However, pulmonary responses in these animals were minimal, indicating poor efficacy.
# In a series of 4 sheep experiments (Group 6 in FIG. 1), in-situ precipitation of chondroitin sulfate and polylysine solutions was achieved as they exit a dual lumen catheter. Chondroitin sulfate was added to a fibrinogen solution to a final concentration of 20 mg/mL, while polylysine was added to a thrombin solution to a final concentration of 20 mg/mL. Both solutions were 5 mL and were injected through a dual lumen catheter into subsegments of sheep lungs for a total of 10 mL per subsegment.
# In a total of 4 sheep (Group 7 in FIG. 1), use of systemic heparin to complex polylysine in the circulation and reduce or prevent renal toxicity was attempted.
# Using this precipitation methodology, polylysine related renal toxicity was prevented over a broad polylysine concentration range from 1 mg/mL to 10 mg/mL at chondroitin sulfate concentration of 1 to 5 mg/mL (Groups 9 to 13 in FIG. 1).
# Lung volume reduction treatment was performed in 8 consecutive animals at 84 subseguential sites using a formulation containing 13 mg/mL of human fibrinogen, 5 mg/mL of sodium chondroitin sulfate, 5 mg/mL of poly-L-lysine, and polymerized in situ with 1000 U activated human thrombin (Group 13 in FIG. 1).
# [1] = 5 mg/mL poly(Lys, Glu) in 28.6 mg/mL fibrinogen
# [2] = 100 mg/treatment in fibrin gel, 12 pulmonary subsegments (group 1)
# [3] = 10 and 30 mg/treatment in fibrin gel (groups 2 and 3)
# [4] = 2.5 mg/mL polyornithine in 28.6 mg/mL fibrinogen
substance,measurement,setting,value
"poly(Lys, Glu) [copolymer]",local pulmonary lesions / efficacy as lung volume reduction agent,rats; [1],no significant local pulmonary lesions; also recorded: failed to demonstrate efficacy
same,"systemic toxicity, manifest as renal lesions",rats; [1],no incidence of systemic toxicity; also recorded: did not show any systemic toxicity
poly-L-lysine [polylysine],lung injury,sheep lungs; [2],severe lung injury
same,renal toxicity,sheep lungs; [2],renal toxicity manifest as nephropathy and infarction
same,pulmonary responses,sheep lungs; [3],acceptable pulmonary responses
same,renal toxicity,sheep lungs; [3],associated with renal toxicity
same,"serum BUN or creatinine, urine analysis, urine protein-to-creatinine ratio",sheep lungs; animals with renal lesions at necropsy,No abnormalities
same,time of occurrence of renal lesions after cationic exposure,sheep lungs; renal infarction with associated hemorrhage,3 to 7 days
heparin,prevention of polylysine renal lesions,"sheep lungs; systemic heparin to complex polylysine in the circulation, 4 sheep (Group 7)",did not prevent renal lesions
polyornithine,local toxicity,rats; [4],significant local toxicity
same,systemic toxicity,rats; [4],"systemic toxicity, manifest as renal lesions"
chondroitin sulfate,pulmonary responses,"sheep lungs; fibrin gel containing 100 mg chondroitin sulfate, 12 subsegments (Group 5)",minimal

# — patent US20070110813A1, “Polycation-polyanion complexes, compositions and methods of use thereof” (priority 2005, published 2007)
